Laboratory results as given in US6605641B2, “20-HETE antagonists and agonists” (MCW Research Foundation, priority 1998, dated 2003).
Entries after “also recorded” stand apart in the source; their conditions may differ.

What was measured:
[1] = tested on: isolated, pressured rat renal interlobular arteries; assay: Isolated vessel studies: vasoconstrictor response (vascular diameter) to cumulative doses of 20-HETE analogs; type: cell-based; settings: 10^−8 to 10^−6 M (up to 1 μM), indomethacin, baicalein, 17-ODYA present, diameter 2 to 3 minutes after addition
Method: General. Experiments were performed on 10 to 12-week old male Sprague-Dawley rats purchased from Harlan Sprague-Dawley Laboratories (Indianapolis, Ind.). The rats were housed in the animal care facility at the Medical College of Wisconsin, which is approved by the American Association for the Accreditation of Laboratory Animal Care. The animals had free access to food and water. All protocols involving animals received approval by the Animal Care Committee of the Medical College of Wisconsin.
(§1) Isolated vessel studies. Interlobular arterioles (70-120 μm inner diameter) were microdissected from the kidneys of rats. The vessels were mounted on glass micropipettes in a perfusion chamber containing physiological saline solution equilibrated with a 95% O2-5% CO2 gas mixture and maintained at 37° C. The vessel were secured to the pipettes and side branches were tied off with 10-0 silk suture. The inflow pipette was connected to a pressurized reservoir to control of intraluminal perfusion pressure, which was monitored using a transducer (Cobe, Lakewood, Colo.). The vessels were stretched to in vivo length measured before microdissection. The outflow cannula was clamped off and intraluminal pressure was maintained at 90 mm Hg during the experiment. Vascular diameters were measured with a video system composed of a stereo microscope (Carl Zeiss, Inc., Germany), a CCTV television camera (KP-130AU, Hitachi, Japan), a videocassette recorder (AG-7300, Panasonic, Japan), a television monitor (CVM-1271, Sony, Japan), and a video measuring system (VIA-100, Boeckeler Instrument Co., Tucson, Ariz.).
(§2) The composition of the perfusate and the bath was (in mM): 119 NaCl, 4.7 KCl, 1.17 MgSO4, 1.6 CaCl2, 12 NaHCO3, 1.18 NaH2PO4, 0.03 EDTA and 10 glucose, pH 7.4. Indomethacin (5 μM), baicalein (0.5 μM) and 17-ODYA (1 μM) were added to the bath to block the endogenous formation and metabolism of eicosanoids via the cyclooxygenase, lipoxygenase and cytochrome P450 pathways. After the equilibration period, cumulative dose response curves were generated for each of the 20-HETE analogs.
Effect of the position of the hydroxyl group on the vasoconstrictor response to 20-HETE. These experiments examined the effects of increasing concentrations of 5(S)-, 8(S)-, 12(S)-, 15(S)-, and 19(S)-HETE on the diameter of isolated, pressured rat renal interlobular arteries. All of these analogs have the same number of carbons, double bonds and molecular weight as 20-HETE (FIG. 1). The major difference between these compounds and 20-HETE is the position of the OH group along the carbon chain. Additional experiments were performed with arachidonic acid and 20-carboxyarachidonic acid, which are structurally similar to 20-HETE but lack a hydroxyl group on the 20th carbon and 20-hydroxyeicosa-6, 15-dienoic acid (reverse 20-HETE) which has the carboxy- and hydroxy-moieties on the 1st and 20th carbons reversed. Cumulative dose response curves were generated for each compound (10^−8 to 10^−6 M) in the presence of indomethacin, baicalein, and 17-ODYA. Vascular diameters were recorded 2 to 3 minutes after the addition of the compounds to the bath.
Effect of the double bonds and carbon chain length to the vasoconstrictor response to 20-HETE. We next examined the importance of the double bonds and the length of the carbon chain to the vasoconstrictor response to 20-HETE. In these studies, the double bonds in the 20-HETE molecule were removed creating partial and saturated 20-HETE derivatives (20-hydroxyeicosa-6(Z),15(Z) dienoic acid; 20-hydroxyeicosanoic acid, FIG. 1). 20-HETE was also shortened by one carbon, creating a 19-carbon analog (19-hydroxynonadeca-5(Z),8(Z),11(Z),14(Z)-tetraenoic acid, FIG. 1) and double bonds were removed, creating a saturated 19-carbon analog (19 hydroxynonadecanoic acid, FIG. 1). […]

[2] = tested on: vasoconstrictor response to 20-HETE in isolated renal interlobular arteries; assay: 20-HETE antagonist activity: dose response curves to 20-HETE before and after addition of analog; type: cell-based, rat; settings: for effect of analog on the vasoconstrictor response to 20-HETE (antagonist activity): analog 0.5 or 1 μM in bath, 20-HETE 10^−8 to 10^−6 M; for reduction of the vasoconstrictor response to 20-HETE: analog 1 μM in bath, for arachidonic acid response to 1 μM 20-HETE
Method: We also disclose below a test for 20-HETE antagonist activity. In this analysis, test compounds were analyzed by a cumulative dose response curve to 20-HETE generated before and after the addition of the test compound. […] We envision suitable antagonists as similarly blocking the vasoconstrictor response.
as §1, §2
20-HETE antagonist activity. […] In these experiments, cumulative dose response curves to 20-HETE (10^−8 to 10^−6 M) were generated before and after addition of 5(S)-HETE (0.5 μM), 8(S)-HETE (1 μM), 12(S)-HETE (0.5 μM), 15(S)-HETE (1 μM), 19(S)-HETE (1 μM), the C19-analog (1 μM), arachidonic acid (1 μM), 20-carboxy-arachidonic acid (1 μM), reverse 20-HETE (1 μM), saturated 20-HETE (1 μM), and the saturated C19-analog (1 μM) to the bath. Vascular diameters were recorded 2 to 3 minutes after the addition of each dose of 20-HETE to the bath.

With CCCCC/C=C\C/C=C\C/C=C\C=C\[C@@H](O)CCCC(=O)O [5(S)-HETE] the “effect on the diameter of renal interlobular arteries (vasoconstrictor/agonist activity)” value (“effect … (vasoconstrictor/agonist activity)” below) [1] was “no significant effect”, the “effect … (vasoconstrictor/agonist activity)” value ([1]; listed as 5-HETE) was “no effect” and the “effect of analog on the vasoconstrictor response to 20-HETE (antagonist activity)” value (“effect of analog” for short) ([2]; listed as 5-HETE) was “completely blocked; also recorded: very effective antagonists; also recorded: blocked the vasoconstrictor response to 20-HETE”.

With CCCCC/C=C\C/C=C\C=C\[C@@H](O)C/C=C\CCCC(=O)O [8(S)-HETE] the “effect … (vasoconstrictor/agonist activity)” value [1] was “no significant effect”, the “effect … (vasoconstrictor/agonist activity)” value ([1]; listed as 8-HETE) was “no effect” and the “effect of analog” value [2] was “no significant effect”. The “effect of analog” value ([2]; listed as 8-HETE) was “did not antagonize”.

With CCCCC/C=C\C[C@H](O)/C=C/C=C\C/C=C\CCCC(=O)O [12(S)-HETE] the “effect … (vasoconstrictor/agonist activity)” value [1] was “no significant effect”, the “effect … (vasoconstrictor/agonist activity)” value ([1]; listed as 12-HETE) was “no effect” and the “effect of analog” value [2] was “no significant effect”. The “effect of analog” value ([2]; listed as 12-HETE) was “did not antagonize”.

For CCCCC[C@H](O)/C=C/C=C\C/C=C\C/C=C\CCCC(=O)O [15(S)-HETE], the “effect … (vasoconstrictor/agonist activity)” value [1] was “no significant effect”, the “effect … (vasoconstrictor/agonist activity)” value ([1]; listed as 15-HETE) was “no effect” and the “effect of analog” value ([2]; listed as 15-HETE) was “completely blocked; also recorded: very effective antagonists; also recorded: blocked the vasoconstrictor response to 20-HETE”.

In the case of C[C@H](O)CCC/C=C\C/C=C\C/C=C\C/C=C\CCCC(=O)O [19(S)-HETE], the “effect … (vasoconstrictor/agonist activity)” value [1] was “no significant effect”, the “effect … (vasoconstrictor/agonist activity)” value ([1]; listed as 19-HETE) was “no effect” and the “effect of analog” value ([2]; listed as 19-HETE) was “completely eliminated the response to 20-HETE; also recorded: very effective antagonists”.

For O=C(O)CCCC/C=C\CCCCCCC/C=C\CCCCO [20-Hydroxyeicosa-6(Z),15(Z)-dienoic Acid], the “effect … (vasoconstrictor/agonist activity)” value [1] was “eliminated agonist activity”, the “effect of analog” value [2] was “completely blocked” and the “effect of analog” value ([2]; listed as partially saturated reverse 20-HETE) was “completely eliminated the response to 20-HETE”.

For O=C(O)CCC/C=C\C/C=C\C/C=C\C/C=C\CCCCCCO [21-HETE, 21-Hydroxyheneicosa-5(Z),8(Z),11(Z),14(Z)-tetraenoic Acid], the “effect … (vasoconstrictor/agonist activity)” value [1] was “just as potent constrictors as 20-HETE” and the “effect … (vasoconstrictor/agonist activity)” value ([1]; listed as 21-carbon derivative) was “just as potent vasoconstrictors as 20-HETE”.

O=C(O)CCC/C=C\C/C=C\C/C=C\C/C=C\CCCCO [C19-analog, 19-Hydroxynonadeca-5(Z),8(Z),11(Z),14(Z)-tetraenoic Acid] was tested, and the “effect … (vasoconstrictor/agonist activity)” value ([1]; listed as 19-carbon analog of 20-HETE) was “no significant effect”, the “effect … (vasoconstrictor/agonist activity)” value ([1]; listed as 19-carbon derivative of 20-HETE) was “no effect” and the “effect of analog” value [2] was “completely eliminated the response to 20-HETE”. For the same compound, the “effect of analog” value ([2]; listed as C19 analog) was “very effective antagonists”.

With CCCCC/C=C\C/C=C\C/C=C\C/C=C\CCCC(=O)O [arachidonic acid] the “effect … (vasoconstrictor/agonist activity)” value [1] was “no significant effect; also recorded: does not constrict”, the “reduction of the vasoconstrictor response to 20-HETE” value [2] was 50% and the “effect of analog” value [2] was “very effective antagonists”.

With CC(C)(O)CCCCC=CCC=CCC=CCC=CCCCC(=O)O [dimethyl 20-HETE, 20,20-Dimethyl-20-HETE] the “effect … (vasoconstrictor/agonist activity)” value [1] was “just as potent constrictors as 20-HETE” and the “effect … (vasoconstrictor/agonist activity)” value ([1]; listed as dimethyl derivative) was “just as potent vasoconstrictors as 20-HETE”.

With O=C(O)CCC/C=C\CCCCCCC/C=C\CCCCCO [partially saturated 20-HETE derivative, 20-Hydroxyeicosa-5(Z),14(Z)-dienoic Acid] the “effect … (vasoconstrictor/agonist activity)” value [1] was “potent a constrictor as 20-HETE” and the “effect … (vasoconstrictor/agonist activity)” value ([1]; listed as partially saturated analog) was “retained vasoconstrictor activity”.

O=C(O)CCCCCCCCCCCCCCCCCCO [saturated 19-carbon analog, 19-Hydroxynonadecanoic Acid] was tested, and the “reduction of the vasoconstrictor response to 20-HETE” value [2] was “about 50%” and the “effect of analog” value [2] was “not as effective as the parent compounds”.

For “Eicosatetraen-1,20-dioic Acid [20-carboxy-arachidonic acid]”, the “effect … (vasoconstrictor/agonist activity)” value [1] was “no significant effect” and the “effect of analog” value [2] was “no significant antagonistic properties”.
